27 compounds from US9200269B2, “β-glucuronidase inhibitor” (priority 2007, dated 2015) can be followed below.

For test [1], the target named is T1, β-glucuronidase Type VII-A derived from Escherichia coli (Escherichia coli, UniProt P05804).
T1 construct: purchased Sigma-Aldrich Corporation
Kind of test: Inhibition of β-glucuronidase activity (PNPG substrate, absorbance at 400 nm). The test is classed as biochemical. The settings on record: for Inhibition rate (%) Concentration 0.001%: 0.001 wt % in reaction solution. The protocol: 100 μL of a 2 mM PNPG aqueous solution, 40 μL of a 0.5 M phosphate buffer (pH 6.8), 38 μL of ion exchanged water and 2 μL of a 10 or 1 wt % dipropylene glycol (DPG) solution of various compounds or plant extracts were mixed in a bottle γ-ray sterilized in advance, and subsequently 20 μL of a β-glucuronidase aqueous solution adjusted to 16 units/mL was added, in order to allow the enzyme to react in a thermostat bath at 37° C. for 2 hours. Further, in the case of some of compounds, in addition to the above steps, the same experiment was performed using a 0.1 wt % DPG solution as well. As a result, the concentrations of the test compounds and plant extracts in the reaction solution were adjusted to 0.1, 0.01 and 0.001 wt %, respectively. Further, a product prepared by adding DPG in place of the above-mentioned compounds and plant extracts was used as a control, and a product prepared by adding ion exchanged water in place of an enzyme solution was used as a blank for each sample and control, and the respective products were allowed to react for 2 hours in the same manner. It should be noted that the plant extract sample was used as a solvent extract.
The above-mentioned reaction solution was diluted with a 0.2 M glycine buffer (pH 10.4) and measured for its absorbance at a wavelength of 400 nm. The relative activity inhibition rate of a β-glucuronidase was determined by using the obtained measurement value in accordance with the following equation. Absorbance change of control=Absorbance of control−Absorbance of blank for each control Absorbance change of sample=Absorbance of sample−Absorbance of blank for each sample Activity inhibition rate (%)=[(Absorbance change of control−Absorbance change of sample)/Absorbance change of control]×100

A short description of test [2]: Urine catching pad urine addition test, urine odor intensity. Also noted: species or system human. The settings on record: six-level score 0 to 5, average of five panelists; inhibitor 1 wt. % of water-absorbent polymer; 30 g human urine, 30° C. The method, then: Sensory evaluation of odor was performed by six panelists, the evaluation was based on a six-level odor intensity indication method in which the odor intensity was indicated with an evaluation score of 0 to 5. In the evaluation score, “0” indicates no odor, “1” indicates odor which can be slightly perceived (detection threshold), “2” indicates odor which can be perceived to be urine odor but is weak (perception threshold), “3” indicates odor which can be easily perceived to be urine odor, “4” indicates strong urine odor, and “5” indicates extreme urine odor. The odor intensity was determined at an interval of 0.5.
Specifically, the urine catching pad was prepared by replacing only a water-absorbent polymer in the commercially available urine catching pad “Relief urine catching pad safe absorption (Anshin-Kyusyu)” (manufactured by Kao Corporation) with a water-absorbent polymer wherein the β-glucuronidase inhibitor of the present invention was added. The added amount of the inhibitor to the water-absorbent polymer was 1 wt. % with respect to the water-absorbent polymer, and was equivalent to 1.5 g/m^2 with respect to the urine catching pad.
A urine addition test was performed by using test pieces having dimensions of 19 cm by 7 cm being cut out from the urine catching pad, and using a test piece containing no β-glucuronidase inhibitor as a blank. The test was performed as follows: 30 g of human urine (a mixture of urine from five humans) were added to these test pieces cut out from the urine catching pad, and the urine odor intensity after 1 hour, after 24 hours, and after 48 hours under preservation at 30° C. was evaluated by five panelists based on the six-level odor intensity indication method as described in the item (2) of Reference Example 2.

Where [3] appears, read: 1.6 units/mL enzyme, 37° C., 2 hours, pH 6.8.
[4] abbreviates: 0.01 wt % in reaction solution, 1.6 units/mL enzyme, 37° C., 2 hours, pH 6.8, read-out: Inhibition rate (%) Concentration 0.01%.
Where [5] appears, read: 0.1 wt % in reaction solution, 1.6 units/mL enzyme, 37° C., 2 hours, pH 6.8, read-out: Inhibition rate (%) Concentration 0.1%.
[6] abbreviates: 0.01 wt % in reaction solution, 1.6 units/mL enzyme, 37° C., 2 hours, pH 6.8.
The mark [7] stands for this setting: 0.1 wt % in reaction solution, 1.6 units/mL enzyme, 37° C., 2 hours, pH 6.8.

Where two headings read alike, the source gives them in different places.

T1 sequence (P05804 whole entry): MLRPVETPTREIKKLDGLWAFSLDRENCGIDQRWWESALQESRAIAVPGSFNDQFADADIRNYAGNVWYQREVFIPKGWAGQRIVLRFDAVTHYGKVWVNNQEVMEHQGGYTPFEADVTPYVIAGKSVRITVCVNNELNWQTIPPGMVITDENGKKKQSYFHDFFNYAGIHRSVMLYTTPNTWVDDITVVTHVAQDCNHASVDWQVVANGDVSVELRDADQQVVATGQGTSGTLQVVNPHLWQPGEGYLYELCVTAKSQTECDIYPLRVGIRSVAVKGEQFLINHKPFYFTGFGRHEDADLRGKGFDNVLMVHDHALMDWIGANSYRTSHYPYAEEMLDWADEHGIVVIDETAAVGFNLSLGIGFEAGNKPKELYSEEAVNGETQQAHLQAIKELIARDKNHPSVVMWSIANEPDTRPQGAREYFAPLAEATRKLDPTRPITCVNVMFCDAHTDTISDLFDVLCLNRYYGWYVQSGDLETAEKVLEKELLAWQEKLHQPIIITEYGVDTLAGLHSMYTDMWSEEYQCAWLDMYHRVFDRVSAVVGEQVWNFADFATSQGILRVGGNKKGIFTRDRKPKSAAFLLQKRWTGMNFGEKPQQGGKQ

On to `O=C(O)[C@@H](O)[C@H]1OC(=O)[C@H](O)[C@H]1O` [D-Glucaro-1,4-lactone, D-glucaro-1,4-lactone, reference compound], for which the “Inhibition rate (%) Concentration 0.001%” value in test [1] (setting [3]) is given as 31.1%. Besides, the inhibition at 0.01 wt % in test [1] (setting [4]) stood at 80.4%. In addition, the inhibition at 0.1 wt % in test [1] (setting [5]) came out at 98%. Also, in test [2], the “Urine odor intensity After 1 hour” value came out at 1.6, the “Urine odor intensity After 24 hours” value worked out at 1.9 and the “Urine odor intensity After 48 hours” value is reported as 3.3.

On to `O=CCCc1ccccc1` [3-Phenylpropanal, 3-phenylpropanal], for which the inhibition at 0.01 wt % in test [1] (setting [4]) stood at 23.3%. Also, in test [1] (setting [5]), the inhibition at 0.1 wt % came to 81.7%.

For the compound `CCC(=O)/C=C/C1C(C)=CCCC1(C)C` (stereo not drawn) [α-Methylionone, α-methylionone], in test [1] (setting [6]), the “Inhibition rate (%) Concentration 0.01%” value is reported as 57.5%. Besides, the “Inhibition rate (%) Concentration 0.1%” value in test [1] (setting [7]) stood at 91.1%.

With `CC/C=C\CCOC(=O)c1ccccc1` [cis-3-Hexenyl benzoate, cis-3-hexenyl benzoate], in test [1] (setting [4]), the inhibition at 0.01 wt % was found to be 45.1%. In addition, the inhibition at 0.1 wt % in test [1] (setting [5]) was found to be 80.6%.

For `O=C1CCCCCCCCCCCCCC1` [Cyclopentadecanone, cyclopentadecanone], the inhibition at 0.01 wt % in test [1] (setting [4]) came out at 35.6%. Also, the inhibition at 0.1 wt % in test [1] (setting [5]) stood at 73.3%.

In the case of `Cc1ccc2c(c1)OCC(=O)CO2` [Calone, 7-methyl-3,4-dihydro-(2H)-1,5-benzodioxepin-3-one], the inhibition at 0.01 wt % in test [1] (setting [4]) was 17.3%. Moreover, in test [1] (setting [5]), the inhibition at 0.1 wt % came out at 73.3%.

With `O=C1CCCCCCCC=CCCCCCCC1` [9-Cycloheptadecen-1-one, 9-cycloheptadecen-1-one], the “Inhibition rate (%) Concentration 0.001%” value in test [1] (setting [3]) is 95.8%. The inhibition at 0.01 wt % in test [1] (setting [4]) worked out at 96.3%. The inhibition at 0.1 wt % in test [1] (setting [5]) was 100%.

As to `O=C1CCCCC/C=C\CCCCCCCCO1` [7-Cyclohexadecenolide, 7-cyclohexadecenolide], the “Inhibition rate (%) Concentration 0.001%” value in test [1] (setting [3]) was found to be 88.1%. For the same compound, the “Inhibition rate (%) Concentration 0.01%” value in test [1] (setting [6]) came to 98.5%. Besides, the “Inhibition rate (%) Concentration 0.1%” value in test [1] (setting [7]) is recorded as 99.6%.

`O=C1CCCCCCCCOCCCCCCO1` [10-Oxa-16-hexadecanolide, 10-oxa-16-hexadecanolide]: the “Inhibition rate (%) Concentration 0.001%” value in test [1] (setting [3]) is reported as 63.0%. In addition, the inhibition at 0.01 wt % in test [1] (setting [4]) amounted to 95.8%. The inhibition at 0.1 wt % in test [1] (setting [5]) is 99.4%.

Consider `C/C=C/C(=O)C1=C(C)CCCC1(C)C` [β-Damascone, β-damascone], for which the “Inhibition rate (%) Concentration 0.01%” value in test [1] (setting [6]) was 39.5%. In addition, the “Inhibition rate (%) Concentration 0.1%” value in test [1] (setting [7]) came out at 77.3%.

For the compound `O=CCc1ccccc1` [Phenylacetaldehyde, phenylacetaldehyde], in test [1] (setting [4]), the inhibition at 0.01 wt % was 31.9%. Besides, the inhibition at 0.1 wt % in test [1] (setting [5]) is 72.2%.

Turning to `COc1cc(C=O)ccc1O` [Vanillin, vanillin], in test [1] (setting [4]), the inhibition at 0.01 wt % worked out at 49.5%. Moreover, in test [1] (setting [5]), the inhibition at 0.1 wt % turned out to be 82.1%.

In the case of `CC(=O)C1(C)CC2=C(CCCC2(C)C)CC1C` (centres unmarked) [Iso E Super, 1,2,3,4,5,6,7,8-octahydro-2,3,8,8-tetramethyl-2-acetonaphthone], in test [1] (setting [6]), the “Inhibition rate (%) Concentration 0.01%” value is on record as 63.1%. Moreover, the “Inhibition rate (%) Concentration 0.1%” value in test [1] (setting [7]) turned out to be 85.9%.

As to `OC/C=C/c1ccccc1` [Cinnamic alcohol, cinnamic alcohol], in test [1] (2 h, pH 6.8, read-out: Inhibition rate (%) Concentration 0.01%), the inhibition at 0.01 wt % amounted to 56.2%. The inhibition at 0.1 wt % in test [1] (2 h, pH 6.8, read-out: Inhibition rate (%) Concentration 0.1%) amounted to 93.5%.

As to `CCCCCCCCCC(C)C=O` (centres unmarked) [2-Methylundecanal, 2-methylundecanal], the inhibition at 0.01 wt % in test [1] (setting [4]) was 57%. The inhibition at 0.1 wt % in test [1] (setting [5]) turned out to be 62.6%.

Regarding `CC1=CC[C@H](C(C)C)C=C1` (racemic) [α-Phellandrene, α-phellandrene], the “Inhibition rate (%) Concentration 0.01%” value in test [1] (setting [6]) is on record as 50.0%. For the same compound, the “Inhibition rate (%) Concentration 0.1%” value in test [1] (setting [7]) stood at 93.6%.

Consider `CCCCCCCC1CCCC1=O` (centres unmarked) [2-Heptylcyclopentanone, 2-heptylcyclopentanone], for which the inhibition at 0.01 wt % in test [1] (setting [4]) was 17.1%. In addition, the inhibition at 0.1 wt % in test [1] (setting [5]) amounted to 70.6%.

Regarding `O=C1CCCC=CCCCCCCCCCC1` [5-Cyclohexadecen-1-one, 5-cyclohexadecen-1-one], the “Inhibition rate (%) Concentration 0.001%” value in test [1] (setting [3]) stood at 65.8%. In addition, in test [1] (setting [4]), the inhibition at 0.01 wt % was 93.9%. The inhibition at 0.1 wt % in test [1] (setting [5]) was found to be 98.4%.

Turning to `CC(C=O)Cc1ccc2c(c1)OCO2` (centres unmarked) [Helional, 2-methyl-3-(3,4-methylenedioxyphenyl)-propanal], in test [1] (setting [4]), the inhibition at 0.01 wt % is 32.4%. Moreover, the inhibition at 0.1 wt % in test [1] (setting [5]) is 76.4%.

Consider `C=CC(C)(O)CCC=C(C)C` (centres unmarked) [Linalool, linalool], for which the inhibition at 0.01 wt % in test [1] (setting [4]) is 31.7%. Besides, the inhibition at 0.1 wt % in test [1] (setting [5]) is 91%.

For `CC(CC=O)CCCC(C)(C)O` (centres unmarked) [Hydroxycitronellal, hydroxycitronellal], the inhibition at 0.01 wt % in test [1] (setting [4]) worked out at 24.2%. Further, the inhibition at 0.1 wt % in test [1] (setting [5]) was 85.3%.

On to `CC(C)=CCCC(C)=CC=O` [Citral, citral], for which, in test [1] (setting [4]), the inhibition at 0.01 wt % was found to be 29.1%. The inhibition at 0.1 wt % in test [1] (setting [5]) was determined as 84.1%.

For the compound `COc1ccc(C)cc1` [p-Cresyl methyl ether, p-cresyl methyl ether], in test [1] (setting [4]), the inhibition at 0.01 wt % was 24%. The inhibition at 0.1 wt % in test [1] (setting [5]) is 85.9%.

As for `CC(=O)OCCC(C)CCC=C(C)C` (centres unmarked) [Citronellyl acetate, citronellyl acetate], the inhibition at 0.01 wt % in test [1] (setting [4]) worked out at 44.8%. In addition, the inhibition at 0.1 wt % in test [1] (setting [5]) worked out at 84.2%.

For `CC(C)=CCCC(C)CC#N` (centres unmarked) [Citronellyl nitrile, citronellyl nitrile], in test [1] (setting [6]), the “Inhibition rate (%) Concentration 0.01%” value stood at 41.8%. Besides, the “Inhibition rate (%) Concentration 0.1%” value in test [1] (setting [7]) came to 92.4%.

Regarding `CC1=CC(C)C(C=O)CC1` (centres unmarked) [Ligustral, dimethyltetrahydrobenzaldehyde], in test [1] (setting [6]), the “Inhibition rate (%) Concentration 0.01%” value is listed as 30.1%. The “Inhibition rate (%) Concentration 0.1%” value in test [1] (setting [7]) is listed as 76.2%.

For `CC(=O)OC(C)(C)C1CC=C(C)CC1` (centres unmarked) [Terpinyl acetate, terpinyl acetate], the “Inhibition rate (%) Concentration 0.01%” value in test [1] (setting [6]) was 65.5%. The “Inhibition rate (%) Concentration 0.1%” value in test [1] (setting [7]) is given as 94.7%.
